# Reference: patent publication US7217733B2, “ACE inhibitor derivatives” (priority 2003, dated 2007)
# Structures can show the parent of a compound that is named as a salt.
# Key:
# [1] = test system: isolated rabbit thoracic aorta preparations; assay: Study on vascular tone: vasorelaxation of noradrenaline-precontracted aortic rings; assay type: cell-based; conditions: for IC50: Oryctolagus cuniculus, concentration giving 50% reversal of NA (1 μM) contraction, rabbit thoracic aorta rings with functional endothelium, read-out: IC50 (μM) ± sem
# Description: The ability of ACE inhibitor nitroderivatives to induce vasorelaxation in comparison to native ACE inhibitors, was tested in vitro in isolated rabbit thoracic aorta preparations (Wanstall J. C. et al., Br. J. Pharmacol., 134:463–472, 2001). Male New Zealand rabbits were anaesthetized with thiopental-Na (50 mg/kg, iv), sacrificed by exsanguinations and then the thorax was opened and the aorta dissected. Single ring preparations (4 mm in length) of thoracic aorta were set up in physiological salt solution (PSS) at 37° C. in small organ chambers (5 ml). The composition of PSS was (mM): NaCl 130, NaHCO3 14.9, KH2PO4 1.2, MgSO4 1.2, HEPES 10, CaCl2, […] (95% O2/5% CO2; pH 7.4). Each ring was mounted under 2 g passive tension in 5 ml organ bath. Isometric tension was recorded with a Grass transducer (Grass FT03) attached to a BIOPAC MP150 System. Preparations were allowed to equilibrate for 1 h, then contracted submaximally with noradrenaline (NA, 1 μM) and, when the contraction was stable, acetylcholine (ACh, 10 μM) was added. A relaxant response to ACh indicated the presence of a functional endothelium. When a stable precontraction was reached, a cumulative concentration-response curve to either of the vasorelaxant agents was obtained in the presence of a functional endothelium. Time intervals between different concentrations were based on the time needed to reach a full response. Moreover, the effect of the soluble guanylyl cyclase inhibitor ODQ (1-H-(1,2,4)-oxadiazol(4,3-a)quinoxalin-1-one) on the dilator responses elicited by the compounds was examined preincubating the aortic rings with ODQ (10 μM) for 20 min. Responses to vasorelaxing agents were measured from the plateau of NA contraction. The IC50 (concentration giving 50% reversal of NA contraction) was interpolated from the plots of relaxant-response vs log molar concentration of tested compound.
# IC50 is the concentration which inhibits 50% of the response.
# [2] = test system: rats with renal mass reduction (RMR); assay: Proteinuria and renal disease progression in rats with renal mass reduction (RMR); assay type: in vivo, rat; conditions: for effect on proteinuria (in words): repeated oral treatment, at 3 months
# Description: Sprague-Dawley rats underwent right nephrectomy and ligation of two or tree branches of the main renal artery according to Olson et al. (1982). […] A group of sham operated rats was also included (Sham). Urinary protein excretion measurements were performed before the treatment and every month thereafter. Twenty-four hour urine samples were collected using metabolic cages and proteinuria was determined by the modified Coomassie Blu G dye-binding assay for the proteins with bovine serum albumin as standard.
# ACE = target: T1, ACE (Mus musculus, UniProt P09470); assay: Plasma ACE activity in CD1 mouse after i.v. dosing (FAPGG spectrophotometric method); assay type: in vivo; conditions: % vs basal condition
# T1 construct: The plasma was stored at −20° C. until the ACE activity measurements; from tissue; host or cells: plasma of CD1 mice (heparinized blood from the vena cava)
# T1 sequence (P09470 35-1237 limits assumed): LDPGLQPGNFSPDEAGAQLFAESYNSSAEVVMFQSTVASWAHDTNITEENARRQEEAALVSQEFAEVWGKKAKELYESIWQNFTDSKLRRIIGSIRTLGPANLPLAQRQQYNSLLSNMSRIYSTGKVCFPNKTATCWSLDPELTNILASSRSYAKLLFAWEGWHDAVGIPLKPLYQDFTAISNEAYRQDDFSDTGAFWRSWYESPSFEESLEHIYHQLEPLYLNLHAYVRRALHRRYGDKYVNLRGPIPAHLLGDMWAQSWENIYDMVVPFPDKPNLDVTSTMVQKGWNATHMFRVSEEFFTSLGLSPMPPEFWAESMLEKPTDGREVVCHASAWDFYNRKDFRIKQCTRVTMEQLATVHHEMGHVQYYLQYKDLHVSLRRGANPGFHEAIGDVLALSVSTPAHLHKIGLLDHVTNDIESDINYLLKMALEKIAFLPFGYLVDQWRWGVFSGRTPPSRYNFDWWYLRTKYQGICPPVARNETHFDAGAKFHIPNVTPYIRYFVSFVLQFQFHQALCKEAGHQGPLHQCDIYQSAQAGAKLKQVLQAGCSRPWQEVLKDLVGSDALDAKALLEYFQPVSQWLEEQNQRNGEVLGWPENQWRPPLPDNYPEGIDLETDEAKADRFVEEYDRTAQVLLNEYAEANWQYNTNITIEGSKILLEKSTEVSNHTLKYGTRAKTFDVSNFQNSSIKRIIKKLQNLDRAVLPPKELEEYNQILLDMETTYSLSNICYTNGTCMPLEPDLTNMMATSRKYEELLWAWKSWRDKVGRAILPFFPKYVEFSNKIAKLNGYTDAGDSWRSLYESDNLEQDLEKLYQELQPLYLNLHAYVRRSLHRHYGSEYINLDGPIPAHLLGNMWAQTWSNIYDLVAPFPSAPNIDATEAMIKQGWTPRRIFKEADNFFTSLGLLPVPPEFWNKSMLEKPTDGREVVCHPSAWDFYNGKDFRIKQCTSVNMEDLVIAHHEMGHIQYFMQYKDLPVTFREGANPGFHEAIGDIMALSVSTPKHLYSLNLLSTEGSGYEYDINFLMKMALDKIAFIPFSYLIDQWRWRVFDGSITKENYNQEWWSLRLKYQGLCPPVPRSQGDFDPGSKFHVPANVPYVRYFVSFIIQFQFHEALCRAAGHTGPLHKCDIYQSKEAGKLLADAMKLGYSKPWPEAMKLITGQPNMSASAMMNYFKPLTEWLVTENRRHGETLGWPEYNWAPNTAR
# Description: CD1 mouse were treated i.v. with a single dose of 3 mg/Kg of enalapril and with a equimolar doses of enalapril nitroderivatives (compound of Ex. 3; 3.6 mg/Kg) and NO-ENA (3.92 mg/Kg). […] Heparinized blood samples were centrifuged at 1000 g for 20 min at 4° C. The plasma was stored at −20° C. until the ACE activity measurements. The ACE activity was determined by a spectrophotometric method (Sigma) based on the enzymatic reaction catalysed by ACE, where the FAPGG was hydrolysed to FAP. FAPGG hydrolysis produced a decrease in the absorbance at 340 nm, a marker of ACE activity in the sample.
# The results, reported in Table 3, are expressed as % of ACE activity vs basal condition.
# [3] = test system: L-NAME-induced hypertension in rats; assay: L-NAME-induced hypertension in rats; assay type: in vivo, rat; conditions: for Systolic blood pressure (mmHg): 2 hours after administration, equimolar doses, basal 140
# Description: Male Wistar rats weighing 225–250 g were used. The rats were divided into two groups. Under halothane anesthesia, radiotelemetry probes were inserted into descending aorta to measure systolic blood pressure (SBP). Baseline blood pressure was recovered (103 mmHg). Both groups were then provided with drinking water supplemented with L-NAME (400 mg/L) for 7 days to induce hypertension. After this treatment all the animals have a SBP of about 140 mmHg. The rats were then treated orally each day with enalapril or an equimolar dose of enalapril-nitroderivative (compound Ex. 3). Blood pressure recordings were made 2 hours after drug administration. The study was continued over three days period of drug administration.
# SHR rats = assay: Hypotensive properties in SHR rats; assay type: in vivo, rat; conditions: i.v. bolus injection of equimolar doses, conscious SHR rats
# Description: After at least 5 days after surgical catheterization of the arterial and venous femoral, conscious old (>9 months) male SHR rats were injected iv bolus with Enalapril, compound of Ex. 3 (equimolar doses) and vehicle (saline) (0.0335 mL/100 g body weight). Blood pressure and heart rate were recorded before (control period 1 h) and after IV bolus administration for up to 4 h.
# [4] = NO release (NOx formation) in rat plasma; assay type: in vitro ADME; conditions: 250 μM, up to 240 min
# Description: Rat blood was freshly collected with Na-heparin as anticoagulant from male Sprague Dawley rats weighing about 300–330 g. Blood was immediately centrifuged to obtain plasma. Plasma was incubated for up to 240 min at 37° C. in presence of either compound of Ex. 3 (250 μM) or of NO-ENA (250 μM). At fixed times points samples were withdrawn from the incubation and NOx (nitrites+nitrates), the oxidative products of NO, were determined by GPC (gas phase chemiluminescence).
# [5] = 3rd month of daily oral treatment, Compound of Ex. 3 50 mg/kg, enalapril 7.5 mg/kg
# [6] = 21 days after renal ablation, before the treatment
# [7] = Basal (before renal ablation and treatment)
# [8] = 15 min after single i.v. dose equimolar to 3 mg/Kg enalapril
# [9] = 30 min after single i.v. dose equimolar to 3 mg/Kg enalapril
# [10] = 1 h after single i.v. dose equimolar to 3 mg/Kg enalapril
# [11] = 3 hs after single i.v. dose equimolar to 3 mg/Kg enalapril
# [12] = 6 hs after single i.v. dose equimolar to 3 mg/Kg enalapril
# [13] = 24 hs after single i.v. dose equimolar to 3 mg/Kg enalapril
IC50 [1] [µM],ACE Activity (% of activity) (ACE; [8]) [%],ACE Activity (% of activity) (ACE; [9]) [%],ACE Activity (% of activity) (ACE; [10]) [%],ACE Activity (% of activity) (ACE; [11]) [%],ACE Activity (% of activity) (ACE; [12]) [%],ACE Activity (% of activity) (ACE; [13]) [%],Structure (SMILES),"Proteinuria (mg/day) ± sem [2, 5] [mg/day]","Proteinuria (mg/day) ± sem [2, 6] [mg/day]","Proteinuria (mg/day) ± sem [2, 7] [mg/day]",effect on proteinuria (in words) [2],Systolic blood pressure (mmHg) ([3]; 1st day of oral treatment),Systolic blood pressure (mmHg) ([3]; 2nd day of oral treatment),Systolic blood pressure (mmHg) ([3]; 3rd day of oral treatment),"effects on L-NAME-induced hypertension compared with enalapril (in words) ([3]; oral, equimolar dose)",decrease in blood pressure compared with enalapril (in words) (SHR rats),NO-release rate compared with NO-ENA (in words) [4],relaxation of NA-contracted aortic rings (in words) ([1]; cumulative concentration-response curve)
21.9 ± 6.9,,,,,,,"C[C@H](N[C@@H](CCc1ccccc1)C(=O)OCCCO[N+](=O)[O-])C(=O)N1CCC[C@H]1C(=O)O [Compound of Ex. 1, N-[(1S)-1-(3-nitrooxypropoxycarbonyl)-3-phenylpropyl]-L-alanyl-L-proline hydrochloride]",,,,,,,,,,,
30.9 ± 8.4,2.9,3.7,4.1,11.1,49.2,83.55,"CCOC(=O)[C@H](CCc1ccccc1)N[C@@H](C)C(=O)N1CCC[C@H]1C(=O)OCCCO[N+](=O)[O-].O=C(O)/C=C\C(=O)O [Compound of Ex. 3, N-[(1S)-1-(Ethoxycarbonyl)-3-phenylpropyl]-L-alanyl-L-proline 3-nitrooxypropyl ester hydrogen maleate]",163.9,76.5 ± 20.3,17.5 ± 1.3,reduced proteinuria at 3 months,120,117,115,superior to those of enalapril,higher decrease in blood pressure than enalapril,much slower than the NO-release of NO-ENA,
> 100,4.8,5.1,7.3,19.6,50.8,100,CCOC(=O)[C@H](CCc1ccccc1)N[C@@H](C)C(=O)N1CCC[C@H]1C(=O)O [Enalapril],290.5 ± 43.2,72.4 ± 18.3,15.7 ± 1.2,only a marginal effect,128,125,120,,,,did not produce relaxation at any of the concentration tested
,5.4,4.8,9.3,23.6,55.2,90.1,"CCOC(=O)[C@H](CCc1ccccc1)N[C@@H](C)C(=O)N1CCC[C@H]1C(=O)Oc1cccc(CO[N+](=O)[O-])c1.O=C(O)/C=C\C(=O)O [NO-ENA, enalapril 3-(nitrooxymethyl)phenyl ester maleate]",,,,,,,,,,,
